Results taken from patent US20170368181A1, “Polymeric Nanoparticle” (The Provost Fellows and Scholars of the College of the Holy …, priority 2010, published 2017).

Assays:
MMP 13 = test: IL-1β-induced MMP 13 mRNA in SW1353 cells, qRT-PCR; assay type: cell-based, human
Protocol: (§1) Cell assay: SW1353 human chondrocytes (ATCC) were maintained in RPMI 1640 medium supplemented with 10% Foetal Calf Serum, L-Glutamine and 1% antibiotics. SW1353 cells were seeded 2.5×10^5 cells per well into 6-well plates. After 24 hours media was replaced with serum free media (SFM) and incubated over night. sCT (10 μM) with either PGE2(1 μM) or IL-1β (10 ng/ml) were added to cells in SFM for 1 hour. Dexamethasone (Dex, 10 μM) was the positive control for the down-regulation of NR4A2. Untreated controls were treated in an identical manner, but with serum-free medium alone. RNA was isolated from SW1353 cells.
Mix to be added to each reaction tube is 4 μL of 5× 1st Strand Buffer, 2 μL of 0.1 M DTT, 1 μL of RNase Out and 1 μL MMLV. Taq Cat# 10342-020 (this contains 0.1 M DTT, 5× 1st S. B.). NR4A and MMP1, 3, 9 and 13 levels were measured by qRT-PCR and expression levels were normalized to GAPDH levels.
Effects of sCT and the nanoparticle on MMP mRNA levels were also investigated. […] Both sCT, HA, and the polymeric nanoparticle down regulated MMP 13 by 47%, 31% and 88% (FIG. 6B). MMPs 1 and 3 were also down regulated. […] Dexamethasone, which is known to down regulate NR4A2 and is used for the treatment of rheumatoid arthritis, was used as a positive control in all experiments. […]

NR4A2 mRNA = test: PGE2-induced NR4A2 mRNA in SW1353 cells, qRT-PCR; assay type: cell-based, human; conditions: PGE2 1 μM, 1 hour
Protocol: as §1
RNA Extraction: Media was removed from the cells and 1 mL of TRIzol® (Invitrogen) was added to each well. Cells were homogenised by pipetting the added TRIzol® up and down for 8-10 times. […] Pellet was then resuspended in an appropriate volume of RNASE/DNASE free water and RNA in each sample was quantified at A260. […]
Mix to be added to each reaction tube is 4 μL of 5× 1st Strand Buffer, 2 μL of 0.1 M DTT, 1 μL of RNase Out and 1 μL MMLV. […] NR4A and MMP1, 3, 9 and 13 levels were measured by qRT-PCR and expression levels were normalized to GAPDH levels.
SW1353 cells were treated with sCT alone or polymeric nanoparticles comprising hyaluronic acid, chitosan, and sCT and PGE2 for 1 hour. Total RNA was extracted and assayed for NR4A2 mRNA levels by quantitative RT-PCR. […]

NR4A2 = NR4A2 expression in ankle joints of K/BxN sera-induced mice; assay type: in vivo, mouse; conditions: intra-peritoneal delivery
Excerpt: On day 4 after K/BxN serum transfer, mice were sacrificed, and their hind paws above the knee joint were harvested for histology to assess the effects of drug treatments on inflammation and bone and cartilage degradation. The histology sections were stained with hematoxylin and eosin (H&E) and Saffarin O and scored blindly under 3 different categories (i) inflammation (synovitis infiltration and pannus formation), (ii) cartilage erosion and (iii) bone erosion. RNA was also isolated from both the ankle joint and knee joint tissue to measure expression of NR4A biomarkers.
RNA was isolated from the ankle joints of control and ‘inflamed’ K/BxN mice to measure expression of NR4A biomarkers. In K/BxN sera-induced mice with no treatment (therefore showing inflammation), high levels of NR4A1, NR4A2 and NR4A3 were over expressed, compared to naïve mice with no serum transfer (no inflammation (FIG. 20).
Expression of NR4A2 was measured in all groups (FIG. 21). […] Histological sections of the knee joint were scored by an observer blinded to the treatment under 3 different criteria (i) inflammation (synovitis infiltration and pannus formation), (ii) cartilage erosion and (iii) bone erosion on a scale of 0-3 (0, none; 1, minimal invasion of meniscus; 2, partial invasion of meniscus; 3, severe invasion of meniscus). […]

[1] = 20° C.; cited from earlier work

## salmon calcitonin [sCT]
MMP 13
  down regulation of MMP 13 mRNA: 47%
NR4A2 mRNA
  inhibition of PGE2 induced NR4A2 transcript levels: 49%
NR4A2
  NR4A2 expression in the ankle joints: reduce NR4A2 expression
[1]
  water solubility: about 1 mg/ml
